# Results reported in PubChem BioAssay AID1963832 (Molecular Pharmacology Branch, DTP, NCI, 2024).
# Test system: 885724-159-R-J1-PDC complex spheroid viability
# Assay: Anticancer human tumor 885724-159-R-J1-PDC patient-derived pancreatic adenocarcinoma cell line growth inhibition [POLQ]
# Conditions: for IC50: curve of first compound; for viability, T/C: stronger effect = lower value
# In short: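 Complex spheroid viability model combining PDC tumour cells with endothelial (HUVEC) and MSC stromal cells. Novobiocin, ART-558 or RP6685 were tested singly and in combination with standard and investigational anticancer drugs. Each was titrated in half-log steps from near clinical Cmax, or from 10 microM where Cmax was unknown.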
# [1] = second compound 0.0316 µM, first compound 0.0316 µM
# [2] = second compound 0.0316 µM, first compound 0.1 µM
# [3] = second compound 0.0316 µM, first compound 0.316 µM
# [4] = second compound 0.0316 µM, first compound 1 µM
# [5] = second compound 0.0316 µM, first compound 3.16 µM
# [6] = second compound 0.0316 µM, first compound 10 µM
# [7] = second compound 0.1 µM, first compound 0.0316 µM
# [8] = second compound 0.1 µM, first compound 0.1 µM
# [9] = second compound 0.1 µM, first compound 0.316 µM
# [10] = second compound 0.1 µM, first compound 1 µM
# [11] = second compound 0.1 µM, first compound 3.16 µM
# [12] = second compound 0.1 µM, first compound 10 µM
# [13] = second compound 0.316 µM, first compound 0.0316 µM
# [14] = second compound 0.316 µM, first compound 0.1 µM
# [15] = second compound 0.316 µM, first compound 0.316 µM
# [16] = second compound 0.316 µM, first compound 1 µM
# [17] = second compound 0.316 µM, first compound 3.16 µM
# [18] = second compound 0.316 µM, first compound 10 µM
# [19] = second compound 1 µM, first compound 0.0316 µM
# [20] = second compound 1 µM, first compound 0.1 µM
# [21] = second compound 1 µM, first compound 0.316 µM
# [22] = second compound 1 µM, first compound 1 µM
# [23] = second compound 1 µM, first compound 3.16 µM
# [24] = second compound 1 µM, first compound 10 µM
# [25] = second compound 3.16 µM, first compound 0.0316 µM
# [26] = second compound 3.16 µM, first compound 0.1 µM
# [27] = second compound 3.16 µM, first compound 0.316 µM
# [28] = second compound 3.16 µM, first compound 1 µM
# [29] = second compound 3.16 µM, first compound 3.16 µM
# [30] = second compound 3.16 µM, first compound 10 µM
# [31] = second compound 10 µM, first compound 0.0316 µM
# [32] = second compound 10 µM, first compound 0.1 µM
# [33] = second compound 10 µM, first compound 0.316 µM
# [34] = second compound 10 µM, first compound 1 µM
# [35] = second compound 10 µM, first compound 3.16 µM
# [36] = second compound 10 µM, first compound 10 µM
# 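Note: spheroids exposed to compounds for 7 days.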
smiles,measurement,setting,value
Nc1ccn(C2OC(CO)C(O)C2(F)F)c(=O)n1 (centres undefined) + COC1C(OC(N)=O)C(O)C(Oc2ccc3c(O)c(NC(=O)c4ccc(O)c(CC=C(C)C)c4)c(=O)oc3c2C)OC1(C)C,IC50,second compound 0.0316 µM,0.8 µM
same,IC50,second compound 0.1 µM,1.86 µM
same,IC50,second compound 0.316 µM,3.11 µM
same,IC50,second compound 1 µM,0.186 µM
same,IC50,second compound 3.16 µM,1.55 µM
same,IC50,second compound 10 µM,> 10 µM
same,"viability, T/C",[1],61.7%
same,"viability, T/C",[2],58.4%
same,"viability, T/C",[3],51.4%
same,"viability, T/C",[4],49.7%
same,"viability, T/C",[5],46.8%
same,"viability, T/C",[6],44.3%
same,"viability, T/C",[7],61.6%
same,"viability, T/C",[8],57.6%
same,"viability, T/C",[9],54%
same,"viability, T/C",[10],52.4%
same,"viability, T/C",[11],50.4%
same,"viability, T/C",[12],40%
same,"viability, T/C",[13],67.8%
same,"viability, T/C",[14],55%
same,"viability, T/C",[15],52.7%
same,"viability, T/C",[16],59.5%
same,"viability, T/C",[17],51.8%
same,"viability, T/C",[18],44%
same,"viability, T/C",[19],71.1%
same,"viability, T/C",[20],51.3%
same,"viability, T/C",[21],48.4%
same,"viability, T/C",[22],51.6%
same,"viability, T/C",[23],45.2%
same,"viability, T/C",[24],41.2%
same,"viability, T/C",[25],62.2%
same,"viability, T/C",[26],59.4%
same,"viability, T/C",[27],52.6%
same,"viability, T/C",[28],48.1%
same,"viability, T/C",[29],53.9%
same,"viability, T/C",[30],44.2%
same,"viability, T/C",[31],69.6%
same,"viability, T/C",[32],53.4%
same,"viability, T/C",[33],52.9%
same,"viability, T/C",[34],56.9%
same,"viability, T/C",[35],50.5%
same,"viability, T/C",[36],45.7%
O=C(c1cc(Cc2n[nH]c(=O)c3ccccc23)ccc1F)N1CCN(C(=O)C2CC2)CC1 + COC1C(OC(N)=O)C(O)C(Oc2ccc3c(O)c(NC(=O)c4ccc(O)c(CC=C(C)C)c4)c(=O)oc3c2C)OC1(C)C,IC50,second compound 0.0316 µM,> 10 µM
same,IC50,second compound 0.1 µM,> 10 µM
same,IC50,second compound 0.316 µM,> 10 µM
same,IC50,second compound 1 µM,> 10 µM
same,IC50,second compound 3.16 µM,> 10 µM
same,IC50,second compound 10 µM,> 10 µM
same,"viability, T/C",[1],101%
same,"viability, T/C",[2],93.9%
same,"viability, T/C",[3],91.4%
same,"viability, T/C",[4],88.3%
same,"viability, T/C",[5],90.8%
same,"viability, T/C",[6],78.9%
same,"viability, T/C",[7],97.4%
same,"viability, T/C",[8],85.9%
same,"viability, T/C",[9],86%
same,"viability, T/C",[10],88%
same,"viability, T/C",[11],86.3%
same,"viability, T/C",[12],83.9%
same,"viability, T/C",[13],94.8%
same,"viability, T/C",[14],91.4%
same,"viability, T/C",[15],90.3%
same,"viability, T/C",[16],89.2%
same,"viability, T/C",[17],85.5%
same,"viability, T/C",[18],75.7%
same,"viability, T/C",[19],85.8%
same,"viability, T/C",[20],89.6%
same,"viability, T/C",[21],89.5%
same,"viability, T/C",[22],95.8%
same,"viability, T/C",[23],85.4%
same,"viability, T/C",[24],79.9%
same,"viability, T/C",[25],96.4%
same,"viability, T/C",[26],85.7%
same,"viability, T/C",[27],104%
same,"viability, T/C",[28],85.5%
same,"viability, T/C",[29],92.8%
same,"viability, T/C",[30],79.7%
same,"viability, T/C",[31],96.3%
same,"viability, T/C",[32],83%
same,"viability, T/C",[33],92.4%
same,"viability, T/C",[34],85.1%
same,"viability, T/C",[35],91.1%
same,"viability, T/C",[36],69.9%
